In patent US9943499B2, “Lipase inhibitors for the treatment of pancreatitis and organ failure” (priority 2011, dated 2018):
Entries after “also recorded” stand apart in the source; their conditions may differ.

What was measured:
[1] = system: pancreatic acini; assay: Acinar-adipocyte co-culture; format: cell-based, mice
Excerpt: Harvesting cells: Primary acinar cells from wild type mice (C57B6) were harvested and used as described previously. Viability, confirmed by trypan blue exclusion, was >95%. […] These were used in the individual experiments. Data presented is representative of 3 or more experiments. Acinar-adipocyte co-culture: This was done in 12-well companion plates with cell culture inserts (FIG. 14). […] Serum and medium cytokine assays: These were done for TNF-α, MCP-1, IL-6, resistin, and adiponectin using the fluorescence-based capture sandwich immunoassay based on the Luminex FlowMetrix system (Luminex). The Milliplex Mouse Adipokine Panel (7-Plex) 1 kit from Millipore (Billerica, Mass.) was used. Samples were analyzed using the Bio-Plex suspension array system, which included a fluorescent reader and Bio-Plex Manager analytical software (Bio-Rad Laboratories, Hercules, Calif.) at the University of Pittsburgh, Cancer Institute Luminex Core Facility. Visceral fat triglyceride composition: The visceral fat triglyceride composition analysis was done at Kennedy Krieger Institute (Baltimore, Md.). Briefly, total lipids were extracted by the method of Folch. […] The fatty acids were derivatized and analyzed by GCMS as their pentafluorbenzylbromide esters. ATP levels, cytochrome C release, and % LDH leakage were measured as previously described. Apoptosis was measured by active caspase-3 [western blotting, activity assays (Enzcheck, Invitrogen, Carlsbad, Calif.)], TUNEL assays, and Hoechst dye nuclear incorporation (8 mg/ml Hoechst 33342 added for 15 minutes after treatment). […] Results were reported as % of cells with given nuclear changes. These were counter stained with PI (1 μM) to stain necrotic cells (FIG. 7A, B, C) and imaged with a Zeiss Meta dual fluorescence confocal microscope. PI-positive cells were counted as late apoptosis or necrosis. […] Autophagy was studied by western blotting for LC3-I and II. RNA was extracted using Trizol (Invitrogen, Carlsbad, Calif.). mRNA levels of TNF-α, CXCL1, and CXCL2 were measured as described previously using real time-PCR performed on an ABI Prism 7000 Sequence Detection System (Applied Biosystems, Foster City, Calif.) on proprietary Taqman Gene Expression assay reagents (Applied Biosystems). Mitochondrial complex assays and citrate synthase assay were done as described previously.

[2] = system: Male Wistar rats; assay: Intraductal infusion of glyceryl trilinoleate (GTL) pancreatitis; format: in vivo
Procedure: Experiments were performed using a model, the technique of which is established and well described in rats (1, 2, 4, 7). This involves infusion of agents into the pancreatic duct to cause acute pancreatitis (1, 2, 4, 7). We will refer to this technique as “intraductal infusion”. We compared the severity of pancreatic damage and survival of rats after intraductal infusion of Glyceryl trilinoleate with and without the lipase inhibitor orlistat. In addition, we used a different lipase inhibitor-cetilistat (3, 6), and studied its efficacy in improving survival of rats in intraductal infusion pancreatitis induced with Glyceryl trilinoleate (GTL).
Male Wistar rats (250-350 gm), were anesthetized. Intraductal infusion of 0.1 ml (n=5) or 0.2 ml (n=5) of GTL (Sigma-Aldrich corporation) alone or GTL+orlistat (Caymen chemical, Ann Arbor, Mich.) (75 mg/ml, 0.1 ml n=5 or 0.2 ml n=5) or GTL+cetilistat (Jinan Wedo Industrial Co., Ltd., Jinan City, Shandong China) (25 mg/ml, 0.2 ml, n=10) was done as described previously (1, 2, 4, 7). All animals were given pain control (buprenorphine 200 mcg/kg BID), Cefazolin (100 mg/kg), and 10 cc saline subcutaneously BID as per the IACUC protocol. These were followed for survival.

[3] = system: ob/ob mice; assay: IL12+18 pancreatitis model; format: in vivo; conditions: for pancreatic changes: fat necrosis, saponification, peri-fat acinar necrosis, acinar necrosis, hypocalcemia (gross, histologic, biochemical): orlistat 50 mg/kg every 12 hours from 2 hours after induction; for serum SFA levels: orlistat vs IL+Veh group
Excerpt: For histologic evaluation, we retrieved all hematoxylin and eosin-stained slides of the pancreas (1-4 in number) of control and acute pancreatitis patients. A trained pathologist with specific interest in gastrointestinal pathology blinded to demographic and clinical data examined the slides. Adipose tissue with large vessels and nerves not bounded by at least 2 pieces of pancreatic parenchyma was regarded as peripancreatic and excluded. The remaining adipose tissue, necrotic fat (bluish cheesy appearance of adipocytes), necrotic parenchyma, and parenchymal necrosis immediately contiguous to areas of fat necrosis (peri-fat acinar necrosis; PFAN) were additionally measured. All of these were measured as a percentage pixel area of each individual field after excluding dead space using Adobe Photoshop PS. The pixel areas of individual parameters for each case were added. The final number was divided by the number of fields to give a percentage area for that parameter in the section. For patients with more than 1 section, the average of the percentage of intrapancreatic fat for all fields from different sections was chosen as representative for the specimen. Von Kossa (to study fat necrosis, saponification), TUNEL (Terminal deoxynucleotidyl transferase dUTP nick end labeling), and oil red O staining were done per standard protocol.
Serum and medium cytokine assays: These were done for TNF-α, MCP-1, IL-6, resistin, and adiponectin using the fluorescence-based capture sandwich immunoassay based on the Luminex FlowMetrix system (Luminex). The Milliplex Mouse Adipokine Panel (7-Plex) 1 kit from Millipore (Billerica, Mass.) was used. Samples were analyzed using the Bio-Plex suspension array system, which included a fluorescent reader and Bio-Plex Manager analytical software (Bio-Rad Laboratories, Hercules, Calif.) at the University of Pittsburgh, Cancer Institute Luminex Core Facility.
Pancreatitis model: IL12+18 model: There were 8-12 animals in each group. Pancreatitis was induced as described previously in 8-10 week old female ob-ob (B6.V-Lepob/J) mice. Briefly, IL-12 (150 ng/dose/mouse) and IL-18 (750 ng/dose/mouse) were simultaneously given intraperitoneally in 2 doses, 24 hours apart. Orlistat at reduced dose than previously published (50 mg/kg) was administered in vehicle (0.1 ml 30% ethanol) as described previously. First injection of orlistat or vehicle was 2 hours after induction of pancreatitis, and these were then repeated every 12 hours.
Non-esterified fatty acid analysis: The sample was extracted with isopropanol-heptane-hydrochloric acid (1M) (40:10:1, v/v) by vortexing for 25-30 min and allowed to incubate at room temperature for 10 minutes. Heptane (4.0 ml) and water (2.0 ml) were added, and the tubes were thoroughly vortexed for 5 minutes. Tubes were centrifuged at 1000 g for 10 minutes at 4° C., and the upper phase (heptane) is transferred into 13×100 mm screw top tubes and dried in a SpeedVac centrifugal concentrator. Non-esterified fatty acids were derivatized with dimethylamine using the Deoxo-Fluor reagent. Non-esterified fatty acid concentrations are measured by gas chromatography separation with flame ionization detection using heptanoic acid as an internal standard. This derivatization method is very mild and efficient and is selective only towards non-esterified fatty acids so that no separation from a total lipid extract is required.

[4] = system: mouse melanoma model; conditions: Carvalho et al., Int. J. Cancer 2008; cited from earlier work
[5] = system: adipocytes; assay: Isoproterenol-stimulated glycerol release in adipocyte culture; format: cell-based
[6] = orlistat 50 μM, acini co-cultured with adipocytes
[7] = in combination with GTL, at necropsy
[8] = orlistat 50 mg/kg every 12 hours

## CCCCCCCCCCC[C@@H](C[C@@H]1OC(=O)[C@H]1CCCCCC)OC(=O)[C@H](CC(C)C)NC=O [orlistat]
[1]; 50 μM orlistat, basal, 100 pM and 100 nM caerulein
  amylase secretory response to caerulein after co-culture: amylase secretory pattern like control acini
[1]; 50 μM orlistat, co-culture
  resistin levels in the medium: prevents increase in resistin
[1]; [6]
  acinar cell viability and function: restored acinar cell viability and function to control levels
  co-culture induced acinar cell changes (necrosis: propidium iodide positivity, drop in ATP levels, cytochrome c leakage; NEFA and resistin increase in medium): completely prevented
[2]; dead/total, intraductal GTL alone, GTL+orlistat 75 mg/ml, GTL+cetilistat 25 mg/ml, followed to day 5
  mortality: 0/10
[2]; [7]
  lung injury (TUNEL positive nuclei): absence of TUNEL positive nuclei
  renal injury (TUNEL positive nuclei): nearly completely prevented
[2]; in combination with GTL, at necropsy, listed as Orlistat
  lung injury (TUNEL positive nuclei): nearly completely prevented
[2]; intraductal GTL with or without lipase inhibitor
  gross pancreatic appearance: hemorrhages and necrosis: prevented the hemorrhages and necrosis up to 5 days
[3]; compared with IL or IL+Veh groups
  serum amylase and lipase levels: significantly reduced
[3]; [8]
  lung injury (apoptotic cells, lung MPO levels): significantly reduced
  mortality: significantly reduced
  renal end organ damage (BUN, tubular vacuoles, oil red O, TUNEL, mitochondrial swelling, saponification): normalized
  serum UFA levels: significantly reduced
  serum resistin, TNF-α, MCP-1 and IL-6: normalized
[3]
  pancreatic changes: fat necrosis, saponification, peri-fat acinar necrosis, acinar necrosis, hypocalcemia (gross, histologic, biochemical): prevents saponification
  serum SFA levels: not significantly reduced
[3]; listed as Orlistat
  pancreatic changes: fat necrosis, saponification, peri-fat acinar necrosis, acinar necrosis, hypocalcemia (gross, histologic, biochemical): significantly blocked
  serum SFA levels: did not significantly reduce
[3]; orlistat 50 mg/kg every 12 hours, listed as Orlistat
  renal end organ damage (BUN, tubular vacuoles, oil red O, TUNEL, mitochondrial swelling, saponification): reduces these
[4]
  apoptosis, cell growth and lymph node metastasis: promote apoptosis and reduce cell grown and lymph node metastasis
[5]; 50 μM orlistat, 1 hour adipocyte culture
  10 μM isoprotrenol stimulated increase in glycerol levels: not significantly prevented
[5]; inferred from glycerol release experiment
  permeability through cell membranes: limited permeability; also recorded: low permeability
